Source: patent US20110159515A1, “COMPOSITIONS AND METHODS FOR THE RAPID GROWTH AND DETECTION OF MICROORGANISMS” (SOLUS SCIENTIFIC SOLUTIONS LIMITED, priority 2008, published 2011)

Experiments:
[1] = tested on: S. aberdeen; experiment: Direct binding Salmonella assay (chemiluminescence immunosorbent)
[2] = tested on: E. coli; experiment: as above

Compound: CCCCCCCCCCCCOS(=O)(=O)[O-].[Na+] [SDS, sodium dodecyl sulphate]
- signal, direct binding Salmonella assay ([1]; 0.5% (w/v) SDS (first block), conjugate 1:100, 2.5 × 10^4 S. aberdeen, black and white plates): 1094 ± 156
- signal, direct binding Salmonella assay ([1]; 0.5% (w/v) SDS (first block), conjugate 1:100, 5 × 10^3 S. aberdeen, black and white plates): 623 ± 9
- signal, direct binding Salmonella assay ([1]; 0.5% (w/v) SDS (first block), conjugate 1:100, 5 × 10^4 S. aberdeen, black and white plates): 1,826 ± 166
- signal, direct binding Salmonella assay ([1]; 0.5% (w/v) SDS (first block), conjugate 1:100, 10^4 S. aberdeen, black and white plates): 796 ± 23
- signal, direct binding Salmonella assay ([1]; 0.5% (w/v) SDS (first block), conjugate 1:100, 10^5 S. aberdeen, black and white plates): 2,259 ± 103
- signal, direct binding Salmonella assay ([1]; 0.5% (w/v) SDS (first block), conjugate 1:100, 10^6 S. aberdeen, black and white plates): 16,959 ± 360^
- signal, direct binding Salmonella assay ([1]; 0.5% (w/v) SDS (first block), conjugate 1:100, Peptone, black and white plates): 705 ± 97
- signal, direct binding Salmonella assay ([1]; 0.5% (w/v) SDS, conjugate 1:50, Peptone, black and white plate, tube luminometer): 1198 ± 112
- signal, direct binding Salmonella assay ([1]; 0.5% (w/v) SDS, conjugate 1:50, S. aberdeen 2.5 × 10^4, black and white plate, tube luminometer): 6697 ± 1676
- signal, direct binding Salmonella assay ([1]; 0.5% (w/v) SDS, conjugate 1:50, S. aberdeen 5 × 10^3, black and white plate, tube luminometer): 1622 ± 21
- signal, direct binding Salmonella assay ([1]; 0.5% (w/v) SDS, conjugate 1:50, S. aberdeen 5 × 10^4, black and white plate, tube luminometer): 12,231 ± 723^
- signal, direct binding Salmonella assay ([1]; 0.5% (w/v) SDS, conjugate 1:50, S. aberdeen 10^4, black and white plate, tube luminometer): 3199 ± 735
- signal, direct binding Salmonella assay ([1]; 0.5% (w/v) SDS, conjugate 1:50, S. aberdeen 10^5, black and white plate, tube luminometer): 22,245 ± 529^
- signal, direct binding Salmonella assay ([1]; 0.5% (w/v) SDS, conjugate 1:50, S. aberdeen 10^6, black and white plate, tube luminometer): 59,070 ± 1216
- signal, direct binding Salmonella assay ([1]; 0.5% SDS (second block), conjugate 1:100, 2.5 × 10^4 S. aberdeen, black and white plates): 1,265 ± 46^
- signal, direct binding Salmonella assay ([1]; 0.5% SDS (second block), conjugate 1:100, 5 × 10^3 S. aberdeen, black and white plates): 748 ± 4
- signal, direct binding Salmonella assay ([1]; 0.5% SDS (second block), conjugate 1:100, 10^4 S. aberdeen, black and white plates): 908 ± 10
- signal, direct binding Salmonella assay ([1]; 0.5% SDS (second block), conjugate 1:100, 10^5 S. aberdeen, black and white plates): 3,947 ± 494
- signal, direct binding Salmonella assay ([1]; 0.5% SDS (second block), conjugate 1:100, 10^6 S. aberdeen, black and white plates): 26,621 ± 843^
- signal, direct binding Salmonella assay ([1]; 0.5% SDS (second block), conjugate 1:100, Peptone, black and white plates): 631 ± 38
- signal, release and detection of core oligosaccharide ([1]; 0.5% SDS, 10^1 bacteria (species not given)): 9918 relative light units
- signal, release and detection of core oligosaccharide ([1]; 0.5% SDS, 10^2 bacteria (species not given)): 9987 relative light units
- signal, release and detection of core oligosaccharide ([1]; 0.5% SDS, 10^3 bacteria (species not given)): 30399 relative light units
- signal, release and detection of core oligosaccharide ([1]; 0.5% SDS, 10^5 bacteria (species not given)): 959119 relative light units
- signal, release and detection of core oligosaccharide ([1]; 0.5% SDS, 10^6 bacteria (species not given)): 884352 relative light units
- signal, direct binding Salmonella assay ([1]; 0.5% SDS, conjugate 1:100, 2.5 × 10^4 S. aberdeen, white plate, Lucy I): 95,766 ± 6,186
- signal, direct binding Salmonella assay ([1]; 0.5% SDS, conjugate 1:100, 5 × 10^3 S. aberdeen, white plate, Lucy I): 24,984 ± 1,727
- signal, direct binding Salmonella assay ([1]; 0.5% SDS, conjugate 1:100, 5 × 10^4 S. aberdeen, white plate, Lucy I): 95,766 ± 6,186
- signal, direct binding Salmonella assay ([1]; 0.5% SDS, conjugate 1:100, 10^4 S. aberdeen, white plate, Lucy I): 46,273 ± 2,310
- signal, direct binding Salmonella assay ([1]; 0.5% SDS, conjugate 1:100, 10^5 S. aberdeen, white plate, Lucy I): 166,049 ± 288
- signal, direct binding Salmonella assay ([1]; 0.5% SDS, conjugate 1:100, 10^6 S. aberdeen, white plate, Lucy I): 374,007 ± 24,114
- signal, direct binding Salmonella assay ([1]; 0.5% SDS, conjugate 1:100, Peptone, black and white plate, tube luminometer): 974 ± 107
- signal, direct binding Salmonella assay ([1]; 0.5% SDS, conjugate 1:100, Peptone, white plate, Lucy I): 3,103 ± 267
- signal, direct binding Salmonella assay ([1]; 0.5% SDS, conjugate 1:100, S. aberdeen 2.5 × 10^4, black and white plate, tube luminometer): 3933 ± 379
- signal, direct binding Salmonella assay ([1]; 0.5% SDS, conjugate 1:100, S. aberdeen 5 × 10^3, black and white plate, tube luminometer): 1209 ± 66
- signal, direct binding Salmonella assay ([1]; 0.5% SDS, conjugate 1:100, S. aberdeen 5 × 10^4, black and white plate, tube luminometer): 8721 ± 63
- signal, direct binding Salmonella assay ([1]; 0.5% SDS, conjugate 1:100, S. aberdeen 10^4, black and white plate, tube luminometer): 1606 ± 243
- signal, direct binding Salmonella assay ([1]; 0.5% SDS, conjugate 1:100, S. aberdeen 10^5, black and white plate, tube luminometer): 15,009 ± 871^
- signal, direct binding Salmonella assay ([1]; 0.5% SDS, conjugate 1:100, S. aberdeen 10^6, black and white plate, tube luminometer): 40,190 ± 783^
- signal, direct binding Salmonella assay ([1]; 0.5% SDS, conjugate 1:150, Peptone, black and white plate, tube luminometer): 998 ± 103
- signal, direct binding Salmonella assay ([1]; 0.5% SDS, conjugate 1:150, S. aberdeen 2.5 × 10^4, black and white plate, tube luminometer): 1615 ± 132
- signal, direct binding Salmonella assay ([1]; 0.5% SDS, conjugate 1:150, S. aberdeen 5 × 10^3, black and white plate, tube luminometer): 975 ± 42
- signal, direct binding Salmonella assay ([1]; 0.5% SDS, conjugate 1:150, S. aberdeen 5 × 10^4, black and white plate, tube luminometer): 6576 ± 549
- signal, direct binding Salmonella assay ([1]; 0.5% SDS, conjugate 1:150, S. aberdeen 10^4, black and white plate, tube luminometer): 1415 ± 132
- signal, direct binding Salmonella assay ([1]; 0.5% SDS, conjugate 1:150, S. aberdeen 10^5, black and white plate, tube luminometer): 12,817 ± 975^
- signal, direct binding Salmonella assay ([1]; 0.5% SDS, conjugate 1:150, S. aberdeen 10^6, black and white plate, tube luminometer): 31,571 ± 2
- signal, direct binding Salmonella assay ([2]; 0% SDS, conjugate 1:100, 10^6 E. coli, black and white plates): 579 ± 37
- signal, direct binding Salmonella assay ([2]; 0.1% (w/v) SDS, conjugate 1:100, 10^6 E. coli, white plate, Lucy I): 4,151 ± 256^
- signal, direct binding Salmonella assay ([2]; 0.1% SDS (first block), conjugate 1:100, 10^6 E. coli, black and white plates): 579 ± 37
- signal, direct binding Salmonella assay ([2]; 0.1% SDS (second block), conjugate 1:100, 10^6 E. coli, black and white plates): 658 ± 108
- signal, direct binding Salmonella assay ([2]; 0.2% (w/v) SDS, conjugate 1:100, 10^6 E. coli, white plate, Lucy I): 3,322 ± 479
- signal, direct binding Salmonella assay ([2]; 0.3% SDS, conjugate 1:100, 10^6 E. coli, white plate, Lucy I): 2,491 ± 107
- signal, direct binding Salmonella assay ([2]; 0.4% SDS, conjugate 1:100, 10^6 E. coli, white plate, Lucy I): 3,197 ± 5
- signal, direct binding Salmonella assay ([2]; 0.5% (w/v) SDS (first block), conjugate 1:100, 10^6 E. coli, black and white plates): 684 ± 88
- signal, direct binding Salmonella assay ([2]; 0.5% (w/v) SDS, conjugate 1:50, E. coli 10^6, black and white plate, tube luminometer): 958 ± 242
- signal, direct binding Salmonella assay ([2]; 0.5% SDS (second block), conjugate 1:100, 10^6 E. coli, black and white plates): 714 ± 74
- signal, direct binding Salmonella assay ([2]; 0.5% SDS, conjugate 1:100, 10^6 E. coli, black and white plate, tube luminometer): 922 ± 78
- signal, direct binding Salmonella assay ([2]; 0.5% SDS, conjugate 1:100, 10^6 E. coli, white plate, Lucy I): 4,574 ± 1,885
- signal, direct binding Salmonella assay ([2]; 0.5% SDS, conjugate 1:150, 10^6 E. coli, black and white plate, tube luminometer): 707 ± 11
